Inhibition and residual activity data for 3 molecules are collected here from ChEMBL document CHEMBL5696442, “Discovery of type II inhibitors of TGFβ-activated kinase 1 (TAK1) and mitogen-activated protein kinase kinase kinase kinase 2 (MAP4K2)” (J Med Chem, 2015).

The structures appear in SMILES notation. Activity calls are given as the source filed them. The calls are words filed in the database; no cut-off is given here.

Broadly, the inhibition is the relative decrease from the control value, in per cent. Usually residual activity stands for what remains of the control signal, in per cent. A low value points to a large loss of activity.

The target of experiment [1] is Serine/threonine-protein kinase MARK2 (Homo sapiens) (UniProt Q7KZI7). The experiment in a line: Inhibition of MARK2 Lys1 labeling site harbouring HILTGKEVAVKIIDKTQLNSSSLQK in human Huh-7 cells at 1 uM by KiNativ Profiling analysis relative to control. The experiment is classed as cell-based.
Experiment [2] addresses Serine/threonine-protein kinase PLK1 (Homo sapiens) (UniProt P53350). Description: Inhibition of PLK1 Lys1 labeling site harbouring CFEISDADTKEVFAGKIVPK in human Huh-7 cell lysate at 1 uM by KiNativ Profiling analysis relative to control. The experiment is classed as subcellular.
For experiment [3] the target is unchanged. Description: Inhibition of PLK1 Lys2 labeling site in human Huh-7 cells at 1 uM by KiNativ Profiling analysis relative to control. It counts as cell-based.
Experiment [4] deals with Serine/threonine-protein kinase Nek7 (Homo sapiens) (UniProt Q8TDX7). The experiment in a line: Inhibition of NEK7 Lys2 labeling site harbouring VMHRDIKPANVFITATGVVK in human Huh-7 cells at 1 uM by KiNativ Profiling analysis relative to control. The experiment is classed as cell-based.
Experiment [5] concerns the target Glycogen synthase kinase-3 beta (Homo sapiens) (UniProt P49841). Description: Inhibition of GSK3B Lys2 labeling site in human Huh-7 cell lysate at 1 uM by KiNativ Profiling analysis relative to control. The experiment is classed as subcellular.
Experiment [6] concerns the target Phosphatidylinositol 4-kinase alpha (Homo sapiens) (UniProt P42356). Description: Inhibition of PI4KA ATP labeling site in human A-375 cells at 0.5 uM by KiNativ Profiling analysis relative to control. It counts as cell-based.
Experiment [7] concerns the target Ribosomal protein S6 kinase alpha-5 (Homo sapiens) (UniProt O75582). Description: Inhibition of C-terminal RPS6KA5 kinase domain 2 (unknown origin) at 1 uM by Ambit Kinomescan binding assay relative to control.
In experiment [8] the target is Glycogen synthase kinase-3 beta (Homo sapiens) (UniProt P49841). The experiment in a line: Inhibition of GSK3B Lys2 labeling site in human A-375 cells at 0.5 uM by KiNativ Profiling analysis relative to control. The experiment is classed as cell-based.
Experiment [9] concerns Fibroblast growth factor receptor 3 (Homo sapiens), P22607 [G697C]. Description: Inhibition of FGFR3 G697C mutant (unknown origin) at 1 uM by Ambit Kinomescan binding assay relative to control; values are per cent of control.
Experiment [10] addresses T1, Serine/threonine-protein kinase 3 (Homo sapiens) (UniProt Q13188).
T1 sequence (whole entry): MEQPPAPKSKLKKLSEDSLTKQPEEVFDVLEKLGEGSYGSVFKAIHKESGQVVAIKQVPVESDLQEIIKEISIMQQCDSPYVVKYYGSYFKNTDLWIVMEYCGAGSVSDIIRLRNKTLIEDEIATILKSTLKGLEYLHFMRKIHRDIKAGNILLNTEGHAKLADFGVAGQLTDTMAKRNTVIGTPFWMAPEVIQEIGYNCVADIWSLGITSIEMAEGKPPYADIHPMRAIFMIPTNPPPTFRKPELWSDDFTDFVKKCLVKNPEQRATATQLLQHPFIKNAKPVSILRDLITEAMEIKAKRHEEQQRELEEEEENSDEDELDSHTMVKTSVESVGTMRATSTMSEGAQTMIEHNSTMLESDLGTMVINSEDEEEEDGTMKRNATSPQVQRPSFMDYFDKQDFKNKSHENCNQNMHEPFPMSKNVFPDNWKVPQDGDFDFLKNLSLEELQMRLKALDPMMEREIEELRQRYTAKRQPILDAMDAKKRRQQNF
The experiment in a line: Inhibition of MST2 (unknown origin) at 1 uM by Ambit Kinomescan binding assay relative to control.

The target of experiment [11] is Tyrosine-protein kinase receptor UFO (Homo sapiens) (UniProt P30530). The experiment in a line: Inhibition of AXL ACT labeling site in human A-375 cells at 5 uM by KiNativ Profiling analysis relative to control. It counts as cell-based.
Experiment [12] addresses Tyrosine-protein kinase Fer (Homo sapiens, UniProt P16591). The experiment in a line: Inhibition of FER (unknown origin) at 1 uM by Ambit Kinomescan binding assay relative to control; values are per cent of control.
Experiment [13] addresses Cyclin-dependent kinase 7 (Homo sapiens) (UniProt P50613). The experiment in a line: Inhibition of CDK7 Lys2 labeling site in human A-375 cells at 0.5 uM by KiNativ Profiling analysis relative to control. The experiment is classed as cell-based.
Experiment [14] deals with Proto-oncogene tyrosine-protein kinase receptor Ret (Homo sapiens), P07949 [M918T]. Description: Inhibition of RET M918T mutant (unknown origin) at 10 uM by Ambit Kinomescan binding assay relative to control; values are per cent of control.
The target in experiment [15] is p38 delta/gamma (Homo sapiens) (UniProt O15264+P53778). Description: Inhibition of p38d/g K2 labeling site in human Huh-7 cells at 10 uM by KiNativ Profiling analysis relative to control. The experiment is classed as cell-based.
The target of experiment [16] is Dual specificity mitogen-activated protein kinase kinase 2 (Homo sapiens) (UniProt P36507). Description: Inhibition of MEK2 (unknown origin) at 10 uM by Ambit Kinomescan binding assay.
Experiment [17] has as its target T2, Phosphatidylinositol 5-phosphate 4-kinase type-2 alpha (Homo sapiens) (UniProt P48426).
T2 sequence (whole entry): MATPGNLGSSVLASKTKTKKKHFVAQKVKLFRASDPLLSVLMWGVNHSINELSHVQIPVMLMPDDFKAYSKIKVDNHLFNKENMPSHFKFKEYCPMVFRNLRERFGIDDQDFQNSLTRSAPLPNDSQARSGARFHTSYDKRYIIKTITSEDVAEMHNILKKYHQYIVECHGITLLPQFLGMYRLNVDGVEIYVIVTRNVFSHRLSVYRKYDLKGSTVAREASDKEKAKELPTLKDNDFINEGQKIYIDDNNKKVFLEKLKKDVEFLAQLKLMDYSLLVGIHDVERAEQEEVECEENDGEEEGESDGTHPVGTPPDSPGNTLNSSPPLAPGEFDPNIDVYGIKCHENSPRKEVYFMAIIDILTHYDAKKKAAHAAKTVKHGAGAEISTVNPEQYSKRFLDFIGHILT
Description: Inhibition of PIP5K2A LIP labeling site in human Huh-7 cells at 10 uM by KiNativ Profiling analysis relative to control. It counts as cell-based.

Sequence of Serine/threonine-protein kinase PLK1 (Homo sapiens) (P53350 whole entry): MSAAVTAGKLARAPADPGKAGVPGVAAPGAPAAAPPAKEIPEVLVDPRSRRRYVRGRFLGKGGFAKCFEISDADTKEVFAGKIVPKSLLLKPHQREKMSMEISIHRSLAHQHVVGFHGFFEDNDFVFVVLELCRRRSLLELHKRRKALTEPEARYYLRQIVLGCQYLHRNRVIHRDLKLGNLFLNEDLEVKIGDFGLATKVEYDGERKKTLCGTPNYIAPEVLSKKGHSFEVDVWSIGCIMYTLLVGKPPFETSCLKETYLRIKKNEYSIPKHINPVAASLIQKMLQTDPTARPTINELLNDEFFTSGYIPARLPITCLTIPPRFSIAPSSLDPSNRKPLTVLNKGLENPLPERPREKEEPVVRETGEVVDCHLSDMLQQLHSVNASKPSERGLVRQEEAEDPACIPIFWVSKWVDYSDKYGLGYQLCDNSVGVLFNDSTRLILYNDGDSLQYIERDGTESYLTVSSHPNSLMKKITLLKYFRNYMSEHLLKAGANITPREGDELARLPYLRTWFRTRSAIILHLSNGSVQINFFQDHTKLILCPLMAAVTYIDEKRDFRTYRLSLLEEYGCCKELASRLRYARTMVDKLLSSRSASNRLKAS
Sequence of Glycogen synthase kinase-3 beta (Homo sapiens) (P49841 whole entry, looked up): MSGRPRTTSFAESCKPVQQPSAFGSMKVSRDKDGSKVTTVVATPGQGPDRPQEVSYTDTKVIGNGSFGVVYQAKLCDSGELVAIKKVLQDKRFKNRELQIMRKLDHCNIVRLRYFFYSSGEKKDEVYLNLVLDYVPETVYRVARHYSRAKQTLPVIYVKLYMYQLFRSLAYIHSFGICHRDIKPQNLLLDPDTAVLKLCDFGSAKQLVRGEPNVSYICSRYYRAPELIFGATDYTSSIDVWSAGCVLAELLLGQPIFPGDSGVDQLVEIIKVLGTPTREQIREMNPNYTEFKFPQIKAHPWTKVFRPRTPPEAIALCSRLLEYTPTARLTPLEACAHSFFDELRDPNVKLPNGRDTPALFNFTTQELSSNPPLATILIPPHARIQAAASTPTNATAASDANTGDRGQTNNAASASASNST
Sequence of Ribosomal protein S6 kinase alpha-5 (Homo sapiens) (O75582 whole entry, looked up, the tested form may be a part): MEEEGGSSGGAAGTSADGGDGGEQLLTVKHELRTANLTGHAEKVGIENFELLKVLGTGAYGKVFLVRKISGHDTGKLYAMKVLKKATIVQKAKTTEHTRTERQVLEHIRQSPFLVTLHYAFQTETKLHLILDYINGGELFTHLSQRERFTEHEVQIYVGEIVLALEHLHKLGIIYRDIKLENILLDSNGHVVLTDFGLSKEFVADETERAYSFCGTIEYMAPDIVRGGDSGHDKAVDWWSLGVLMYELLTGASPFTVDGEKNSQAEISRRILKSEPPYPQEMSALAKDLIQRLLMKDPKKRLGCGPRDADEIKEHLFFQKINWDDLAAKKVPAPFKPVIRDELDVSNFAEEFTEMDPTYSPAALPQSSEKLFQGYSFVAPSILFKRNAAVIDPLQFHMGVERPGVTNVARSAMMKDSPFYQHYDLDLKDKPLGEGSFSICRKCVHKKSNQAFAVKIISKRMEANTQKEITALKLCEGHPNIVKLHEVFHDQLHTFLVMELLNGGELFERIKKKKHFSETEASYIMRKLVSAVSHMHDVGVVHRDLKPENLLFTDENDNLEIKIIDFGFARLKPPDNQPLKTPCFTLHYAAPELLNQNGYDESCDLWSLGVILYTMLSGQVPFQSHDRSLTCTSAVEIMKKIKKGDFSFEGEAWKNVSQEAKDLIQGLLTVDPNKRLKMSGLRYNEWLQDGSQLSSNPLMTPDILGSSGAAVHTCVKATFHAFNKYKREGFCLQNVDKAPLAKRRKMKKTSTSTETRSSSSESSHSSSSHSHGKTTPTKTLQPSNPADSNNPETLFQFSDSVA
Sequence of Serine/threonine-protein kinase Nek7 (Homo sapiens) (Q8TDX7 whole entry, looked up): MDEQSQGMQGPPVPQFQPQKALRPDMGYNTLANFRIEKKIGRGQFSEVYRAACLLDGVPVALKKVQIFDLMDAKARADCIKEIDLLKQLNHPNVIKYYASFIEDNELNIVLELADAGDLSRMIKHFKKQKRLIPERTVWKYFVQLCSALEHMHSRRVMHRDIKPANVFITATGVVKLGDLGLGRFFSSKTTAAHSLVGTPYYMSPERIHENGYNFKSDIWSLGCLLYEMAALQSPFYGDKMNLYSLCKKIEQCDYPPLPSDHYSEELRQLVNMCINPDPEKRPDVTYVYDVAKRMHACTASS
Sequence of Fibroblast growth factor receptor 3 (Homo sapiens), P22607 [G697C] (P22607 whole entry G697C): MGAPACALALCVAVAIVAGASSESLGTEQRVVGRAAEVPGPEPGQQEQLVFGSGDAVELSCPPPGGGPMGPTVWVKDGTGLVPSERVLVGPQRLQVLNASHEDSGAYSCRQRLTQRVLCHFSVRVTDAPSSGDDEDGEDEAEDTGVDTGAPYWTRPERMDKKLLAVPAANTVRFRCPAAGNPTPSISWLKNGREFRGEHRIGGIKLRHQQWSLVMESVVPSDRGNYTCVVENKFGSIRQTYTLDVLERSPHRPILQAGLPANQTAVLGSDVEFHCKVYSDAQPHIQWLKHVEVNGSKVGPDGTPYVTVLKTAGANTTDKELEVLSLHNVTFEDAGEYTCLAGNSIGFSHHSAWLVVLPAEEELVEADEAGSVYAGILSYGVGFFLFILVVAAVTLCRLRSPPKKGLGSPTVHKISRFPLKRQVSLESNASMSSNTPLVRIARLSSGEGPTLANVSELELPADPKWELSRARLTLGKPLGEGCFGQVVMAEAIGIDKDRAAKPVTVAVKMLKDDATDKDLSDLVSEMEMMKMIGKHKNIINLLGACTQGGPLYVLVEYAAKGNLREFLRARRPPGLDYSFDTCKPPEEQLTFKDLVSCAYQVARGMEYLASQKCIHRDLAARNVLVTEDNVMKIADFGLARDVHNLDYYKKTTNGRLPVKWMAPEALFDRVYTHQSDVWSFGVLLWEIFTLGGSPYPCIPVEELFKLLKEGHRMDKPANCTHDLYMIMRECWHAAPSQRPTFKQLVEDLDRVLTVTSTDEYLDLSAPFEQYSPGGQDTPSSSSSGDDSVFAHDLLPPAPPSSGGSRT
Sequence of Tyrosine-protein kinase receptor UFO (Homo sapiens) (P30530 whole entry): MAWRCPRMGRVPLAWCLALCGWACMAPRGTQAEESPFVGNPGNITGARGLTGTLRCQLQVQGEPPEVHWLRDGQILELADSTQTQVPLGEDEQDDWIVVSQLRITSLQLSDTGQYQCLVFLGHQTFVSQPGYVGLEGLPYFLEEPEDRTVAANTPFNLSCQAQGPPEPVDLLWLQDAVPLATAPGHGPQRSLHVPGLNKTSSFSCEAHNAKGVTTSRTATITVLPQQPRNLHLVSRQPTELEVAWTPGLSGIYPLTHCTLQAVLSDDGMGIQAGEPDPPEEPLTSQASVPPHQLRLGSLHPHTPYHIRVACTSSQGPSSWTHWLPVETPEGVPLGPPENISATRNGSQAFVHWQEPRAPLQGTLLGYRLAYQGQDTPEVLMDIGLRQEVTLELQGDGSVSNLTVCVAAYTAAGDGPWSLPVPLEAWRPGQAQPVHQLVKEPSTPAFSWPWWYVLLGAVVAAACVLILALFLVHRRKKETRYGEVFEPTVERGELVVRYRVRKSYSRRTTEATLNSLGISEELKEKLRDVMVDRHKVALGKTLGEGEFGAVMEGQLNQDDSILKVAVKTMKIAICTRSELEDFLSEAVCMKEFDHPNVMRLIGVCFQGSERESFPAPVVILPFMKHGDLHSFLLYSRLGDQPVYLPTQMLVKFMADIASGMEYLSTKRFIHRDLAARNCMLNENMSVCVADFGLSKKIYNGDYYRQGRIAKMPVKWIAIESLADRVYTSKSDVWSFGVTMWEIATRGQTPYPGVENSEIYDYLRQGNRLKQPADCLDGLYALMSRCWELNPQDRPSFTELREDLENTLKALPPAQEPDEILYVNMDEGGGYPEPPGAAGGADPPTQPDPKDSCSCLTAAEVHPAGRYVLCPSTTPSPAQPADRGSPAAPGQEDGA
Sequence of Cyclin-dependent kinase 7 (Homo sapiens) (P50613 whole entry): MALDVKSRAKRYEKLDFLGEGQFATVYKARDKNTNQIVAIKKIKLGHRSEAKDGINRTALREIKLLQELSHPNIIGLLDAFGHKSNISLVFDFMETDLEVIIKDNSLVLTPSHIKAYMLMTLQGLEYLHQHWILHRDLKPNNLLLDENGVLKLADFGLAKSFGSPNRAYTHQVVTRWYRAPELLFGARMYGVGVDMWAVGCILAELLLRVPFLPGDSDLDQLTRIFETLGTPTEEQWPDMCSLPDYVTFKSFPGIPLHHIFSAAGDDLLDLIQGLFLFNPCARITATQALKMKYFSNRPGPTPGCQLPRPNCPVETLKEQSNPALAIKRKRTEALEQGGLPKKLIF
Sequence of Tyrosine-protein kinase Fer (P16591 whole entry, looked up): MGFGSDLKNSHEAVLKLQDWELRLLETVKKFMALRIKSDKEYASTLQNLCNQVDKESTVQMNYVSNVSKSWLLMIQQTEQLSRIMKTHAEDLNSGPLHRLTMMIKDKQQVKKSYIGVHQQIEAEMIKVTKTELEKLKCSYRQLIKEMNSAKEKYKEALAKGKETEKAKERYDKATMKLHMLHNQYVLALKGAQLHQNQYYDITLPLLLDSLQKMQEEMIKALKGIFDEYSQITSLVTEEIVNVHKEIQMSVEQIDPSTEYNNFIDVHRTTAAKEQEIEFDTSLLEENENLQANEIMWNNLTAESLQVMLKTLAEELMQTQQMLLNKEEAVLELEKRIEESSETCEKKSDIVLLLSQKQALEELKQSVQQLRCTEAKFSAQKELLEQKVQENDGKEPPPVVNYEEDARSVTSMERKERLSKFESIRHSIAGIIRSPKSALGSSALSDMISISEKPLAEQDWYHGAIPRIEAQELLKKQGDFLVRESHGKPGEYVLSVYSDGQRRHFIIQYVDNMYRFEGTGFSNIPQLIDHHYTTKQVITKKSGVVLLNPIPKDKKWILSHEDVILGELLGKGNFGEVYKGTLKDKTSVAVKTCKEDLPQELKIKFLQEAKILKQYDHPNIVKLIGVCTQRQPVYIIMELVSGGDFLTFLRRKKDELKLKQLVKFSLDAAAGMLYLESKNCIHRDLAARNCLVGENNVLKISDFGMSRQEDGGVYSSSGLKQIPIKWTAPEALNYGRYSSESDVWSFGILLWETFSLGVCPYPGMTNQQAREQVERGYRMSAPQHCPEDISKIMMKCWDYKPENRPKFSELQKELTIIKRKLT

Consider `CNc1cc(Oc2cc(C(=O)Nc3cc(N4CCN(C)CC4)cc(C(F)(F)F)c3)ccc2C)ncn1`, for which the inhibition in experiment [1] was -0.2%; in [2], 1%; in [3], 1.3%; in [4], 6.9%; in [5] it was 6%.

Regarding `CCN1CCN(Cc2ccc(NC(=O)c3ccc(C)c(/C=C/c4cnc5[nH]ccc5c4OC)c3)cc2C(F)(F)F)CC1`, the inhibition is -8% in [6]; 100% in experiment [7]; 34.9% in experiment [8]; 100% in [10]; -6.1% in experiment [11]; 36.2% in experiment [13]. Moreover, the residual activity came out at 23% in experiment [9] and 21% in experiment [12].

`CCN1CCN(Cc2ccc(NC(=O)c3ccc(C)c(Oc4ccnc5[nH]ccc45)c3)cc2C(F)(F)F)CC1` displayed a residual activity in experiment [14] of 0%. For the same molecule, the inhibition worked out at 65% in experiment [15] and 0% in experiment [17]. In [16], the inhibition entry is “inactive”.
